Measurements taken from patent publication US12454530B2, “Amido cyclohexane acid derivatives as LPA receptor inhibitors” (CHIESI FARMACEUTICI S.P.A., priority 2020, dated 2025).
Like-named read-outs stand apart in the source and are kept apart here.

Key:
[1] = biological target: human recombinant LPA1 expressed in CHO cells (Homo sapiens (Human), UniProt Q92633); experiment: LPA1 antagonist FLIPR calcium assay in CHO-hLPA1 cells; type: cell-based
Experimental: The effectiveness of compounds of the present invention as LPA1 antagonists can be determined at the human recombinant LPA1 expressed in CHO cells, using a FLIPR assay in 384 well format.
CHO-hLPA1 cell lines are cultured in a humidified incubator at 5% CO2 in DMEM/F-12 (1:1) MIXTURE with 2 mM Glutamax, supplemented with 10% of Foetal Bovine Serum, 1 mM Sodium Pyruvate, 11 mM Hepes and 1× Penicillin/Streptomycin. […] Serial dilutions (1:3 or 1:4, 11 points CRC) of compounds are performed in 100% DMSO at 200× the final concentration. […] The final concentration of DMSO in the assay will be 0.5% in each well. Medium is removed by aspiration and cells are then incubated with 30 μl of a loading solution containing 5 μM of the cytoplasmic Ca2+ indicator Cal-520 AM in Assay Buffer containing 2.5 mM probenecid for 30 min at 37° C. incubator (cell loading). The loaded cell plates are transferred into the FLIPR instrument and calcium responses are monitored during the on-line addition protocols. For testing of compounds, after the cell loading, 10 μl/well of 4× antagonists' solution was added onto the cells. After 30 min pre-incubation (at 37° C.), 10 μl/well of 5× concentrated LPA EC80 was added and Ca2+ mobilization responses was followed during the on-line addition protocol. Intracellular peak fluorescence values subtracted by baseline fluorescence are exported and analysed to determine IC50 values, respectively. The calcium response is expressed as percentage of the maximal inhibition of the EC80 agonist response.
The raw data (peak height expressed as relative fluorescence units) are normalized and transformed into “percent of inhibition”. Curve fitting and pIC50 (−LogIC50) estimations are carried out using a four-parameter logistic model using XLfit Software.

[2] = biological target: BSEP (Homo sapiens (Human), UniProt O95342); experiment: BSEP inhibition: biliary clearance of Taurocolic Acid in sandwich-cultured human hepatocytes; type: in vitro ADME; details: 50 μM test compound, 10 μM TCA, human hepatocytes sandwich configuration; for inhibition at 10 min, 50 μM: sandwich-cultured cryopreserved human hepatocytes, probe Taurocolic Acid (TCA)
Chain of BSEP (O95342 whole entry): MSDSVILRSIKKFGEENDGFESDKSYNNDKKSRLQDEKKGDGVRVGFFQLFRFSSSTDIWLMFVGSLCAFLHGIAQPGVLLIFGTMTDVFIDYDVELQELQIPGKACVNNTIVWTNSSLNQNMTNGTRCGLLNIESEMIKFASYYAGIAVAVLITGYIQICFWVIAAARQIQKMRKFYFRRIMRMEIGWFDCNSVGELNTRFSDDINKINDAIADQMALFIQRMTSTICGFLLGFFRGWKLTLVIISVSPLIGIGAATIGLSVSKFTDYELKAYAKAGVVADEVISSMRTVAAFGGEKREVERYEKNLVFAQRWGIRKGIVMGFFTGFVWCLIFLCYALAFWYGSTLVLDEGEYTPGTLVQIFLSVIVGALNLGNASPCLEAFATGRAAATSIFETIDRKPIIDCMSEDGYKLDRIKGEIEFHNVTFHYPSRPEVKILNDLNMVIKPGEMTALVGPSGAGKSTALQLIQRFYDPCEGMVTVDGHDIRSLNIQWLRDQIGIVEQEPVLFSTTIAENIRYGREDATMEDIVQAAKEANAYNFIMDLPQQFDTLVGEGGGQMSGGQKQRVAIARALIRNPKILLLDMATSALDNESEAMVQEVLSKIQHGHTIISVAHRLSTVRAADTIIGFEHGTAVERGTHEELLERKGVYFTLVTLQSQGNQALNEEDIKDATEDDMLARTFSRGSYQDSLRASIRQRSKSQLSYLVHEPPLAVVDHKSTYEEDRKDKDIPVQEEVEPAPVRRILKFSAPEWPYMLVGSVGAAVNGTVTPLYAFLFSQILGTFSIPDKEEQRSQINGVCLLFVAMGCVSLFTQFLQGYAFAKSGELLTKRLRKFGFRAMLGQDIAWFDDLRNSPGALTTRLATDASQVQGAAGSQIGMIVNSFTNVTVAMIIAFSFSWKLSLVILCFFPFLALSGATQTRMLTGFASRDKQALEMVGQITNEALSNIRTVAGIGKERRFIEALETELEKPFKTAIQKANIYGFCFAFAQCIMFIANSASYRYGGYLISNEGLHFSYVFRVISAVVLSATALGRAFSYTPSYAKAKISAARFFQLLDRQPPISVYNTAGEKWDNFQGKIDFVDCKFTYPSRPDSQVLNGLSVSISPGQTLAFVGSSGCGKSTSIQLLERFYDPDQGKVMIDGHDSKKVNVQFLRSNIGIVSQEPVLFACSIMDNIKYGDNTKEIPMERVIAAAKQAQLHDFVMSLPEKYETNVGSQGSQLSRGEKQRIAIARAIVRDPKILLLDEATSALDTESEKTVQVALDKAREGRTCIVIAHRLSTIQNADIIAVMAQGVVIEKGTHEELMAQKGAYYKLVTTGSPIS
Experimental: BSEP inhibition was evaluated using human hepatocytes cultured between two layer of collagen (sandwich configuration). In this culture condition, hepatocytes express relevant transporters including BSEP and retain the bile canalicular structure. An inhibition of the biliary clearance of Taurocolic Acid (TCA), a known BSEP substrate, was used to assess BSEP interaction.
BSEP inhibition was evaluated using cryopreserved human hepatocytes (Plateable Cryopreserved Human Hepatocytes, BIOIVT) cultured for 5 day between two layer of collagen (sandwich configuration). In this culture condition, hepatocytes express relevant transporters including BSEP and retain the bile canalicular structure.
On day 5 of culture, hepatic cells are ready for the assay and the biliary clearance of Taurocolic Acid (TCA), a known BSEP substrate, can be estimated in presence and in absence of compound of interest.
The sample solution was prepared dissolving test compound and TCA in DMSO and then diluted in the Assay Buffer: Hank's Balance Salt Solution (HBSS+) warmed at 37° C. before use, to give the 10 μM TCA working solution with and without 50 μM of test compound. Hepatocytes were incubated for 10 minutes with these working solutions allowing TCA to be excreted into bile. At the end of incubation, the working solution was aspirated, and the content of the bile was collected through the addition of HBSS Modified without Ca2+/Mg2+(HBSS−). The presence of Ca2+ in the buffer is required to maintain the integrity of the tight junctions, the diffusional barrier between the canalicular lumen and extracellular space. Instead, incubation of cells in Ca2+-free buffer disrupts the tight junctions and opens the bile canalicular structures, allowing the bile content to be released and collect for HPLC-MS/MS analysis.
The in vitro biliary clearance of TCA incubated with and without test compounds is calculated according to the following formula:
where • Acc. Bile=(TCA amount in HBSS (−) buffer samples (pmol/mg protein)*Volume of each samples (mL))/Protein content per well (mg) • AUC=Incubation time (min)*T0 Concentration. T0 concentration is the initial TCA concentration in the medium.
The inhibition of BSEP was calculated as percentage of inhibition of TCA biliary clearance in presence of compound of interest, according to the following formula: BSEP inhibition %=100−(TCA ClBil with test compound*100)
TCA ClBil without test compound.

[3] = range of activity, CHO-hLPA1, LPA EC80, Ca2+ mobilization, read-out: LPA1 IC50

Chain of human recombinant LPA1 expressed in CHO cells (Q92633 whole entry): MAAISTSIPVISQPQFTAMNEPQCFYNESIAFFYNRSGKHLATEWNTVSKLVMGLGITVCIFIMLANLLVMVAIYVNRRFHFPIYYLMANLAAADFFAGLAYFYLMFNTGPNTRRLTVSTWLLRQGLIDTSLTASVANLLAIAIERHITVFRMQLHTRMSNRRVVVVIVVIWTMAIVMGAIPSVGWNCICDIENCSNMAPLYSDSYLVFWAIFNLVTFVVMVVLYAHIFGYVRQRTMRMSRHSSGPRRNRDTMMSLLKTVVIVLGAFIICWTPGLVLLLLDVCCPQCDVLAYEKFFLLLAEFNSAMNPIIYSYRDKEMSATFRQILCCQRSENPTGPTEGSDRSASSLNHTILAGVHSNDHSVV

IC50 [1, 3] | IC50 ([1]; comparative compound, read-out: IC50 on receptor LPA1) | Structure (SMILES) | BSEP Inhibition at 50 μM [2] | inhibition at 10 min, 50 μM [2]
< 50 nM |  | C[C@@H](OC(=O)Nc1c(-c2ccc(NC(=O)C3CCCCC3C(=O)O)cc2)cnn1C)c1ccccc1Cl (single isomer, unassigned) [Example 4] |  | 
250 to 600 nM |  | C[C@@H](OC(=O)Nc1c(-c2ccc(NC(=O)C3CCCCC3C(=O)O)cc2)cnn1C)c1ccccc1Cl (single isomer, unassigned) [Example 5] |  | 
50 to 250 nM |  | Cc1nc(-c2onc(C)c2NC(=O)OC(C)c2cccnc2F)ccc1NC(=O)[C@H]1CCCC[C@@H]1C(=O)O (single isomer, unassigned) [Example 20] |  | ≤ 50%
50 to 250 nM |  | Cc1nc(-c2onc(C)c2NC(=O)O[C@H](C)c2cccnc2Cl)ccc1NC(=O)[C@H]1CCCC[C@@H]1C(=O)O [Example 11, (1S,2S)-2-((6-(4-((((R)-1-(2-chloropyridin-3-yl)ethoxy)carbonyl)amino)-3-methylisoxazol-5-yl)-2-methylpyridin-3-yl)carbamoyl)cyclohexane-1-carboxylic acid] |  | ≤ 50%
50 to 250 nM |  | Cc1noc(-c2ccc(NC(=O)[C@H]3CCCC[C@@H]3C(=O)O)cn2)c1NC(=O)OC(C)c1cccnc1F (stereo partly drawn) [Example 17, (1S,2S)-2-((6-(4-(((1-(2-fluoropyridin-3-yl)ethoxy)carbonyl)amino)-3-methylisoxazol-5-yl)pyridin-3-yl)carbamoyl)cyclohexane-1-carboxylic acid] |  | ≤ 50%
50 to 250 nM |  | Cc1nc(-c2onc(C)c2NC(=O)OC(C)c2cccnc2F)ccc1NC(=O)[C@H]1CCCC[C@@H]1C(=O)O (stereo partly drawn) [Example 19, (1S,2S)-2-((6-(4-(((1-(2-fluoropyridin-3-yl)ethoxy)carbonyl)amino)-3-methylisoxazol-5-yl)-2-methylpyridin-3-yl)carbamoyl)cyclohexane-1-carboxylic acid] |  | 
250 to 600 nM |  | Cc1nc(-c2onc(C)c2NC(=O)O[C@H](C)c2nccs2)ccc1NC(=O)[C@H]1CCCC[C@@H]1C(=O)O [Example 22, (1S,2S)-2-((2-methyl-6-(3-methyl-4-((((R)-1-(thiazol-2-yl)ethoxy)carbonyl)amino)isoxazol-5-yl)pyridin-3-yl)carbamoyl)cyclohexane-1-carboxylic acid] |  | ≤ 50%
50 to 250 nM |  | Cc1noc(-c2ccc(NC(=O)[C@H]3CCCC[C@@H]3C(=O)O)cn2)c1NC(=O)O[C@H](C)c1cccnc1Cl [Example 29, (1S,2S)-2-((6-(4-((((R)-1-(2-chloropyridin-3-yl)ethoxy)carbonyl)amino)-3-methylisoxazol-5-yl)pyridin-3-yl)carbamoyl)cyclohexane-1-carboxylic acid] |  | ≤ 50%
< 50 nM |  | Cc1noc(-c2ncc(NC(=O)[C@H]3CCCC[C@@H]3C(=O)O)cc2F)c1NC(=O)O[C@H](C)c1ccccc1Cl [Example 31, (1S,2S)-2-((6-(4-((((R)-1-(2-chlorophenyl)ethoxy)carbonyl)amino)-3-methylisoxazol-5-yl)-5-fluoropyridin-3-yl)carbamoyl)cyclohexane-1-carboxylic acid] |  | ≤ 50%
250 to 600 nM |  | Cc1nc(-c2onc(C)c2NC(=O)O[C@H](C)c2cccnc2)ccc1NC(=O)C1CCCCC1C(=O)O (stereo partly drawn) [Example 33, Cis-2-((2-methyl-6-(3-methyl-4-((((R)-1-(pyridin-3-yl)ethoxy)carbonyl)amino)isoxazol-5-yl)pyridin-3-yl)carbamoyl)cyclohexane-1-carboxylic acid] |  | 
 | > 1000 nM | Cc1noc(-c2ccc(NC(=O)C3CCCCC3C(=O)O)cc2)c1NC(=O)O[C@H](C)c1cccnc1 (stereo partly drawn) [comparative Example B, 2-((4-(3-methyl-4-((((R)-1-(pyridin-3-yl)ethoxy)carbonyl)amino)isoxazol-5-yl)phenyl)carbamoyl)cyclohexane-1-carboxylic acid, reference compound] |  | 

More lines, now with the values behind:

Structure (SMILES) | IC50 [1, 3] | IC50 ([1]; comparative compound, read-out: IC50 on receptor LPA1) | BSEP Inhibition at 50 μM [2] | inhibition at 10 min, 50 μM [2]
C[C@@H](OC(=O)Nc1ccsc1-c1ccc(NC(=O)C2CCCCC2C(=O)O)cc1)c1ccccc1Cl (single isomer, unassigned) [Example 8] | 250 to 600 nM |  |  | 
C[C@@H](OC(=O)Nc1ccsc1-c1ccc(NC(=O)C2CCCCC2C(=O)O)cc1)c1ccccc1Cl (single isomer, unassigned) [Example 10] | < 50 nM |  | ≤50% | 
Cc1nc(-c2onc(C)c2NC(=O)O[C@H](C)c2ccccc2Cl)ccc1NC(=O)C1CCCCC1C(=O)O (single isomer, unassigned) [Example 14] |  |  | ≤50% | 
Cc1noc(-c2ccc(NC(=O)[C@H]3CCCC[C@@H]3C(=O)O)cn2)c1NC(=O)OC(C)c1cccnc1F (single isomer, unassigned) [Example 18] | 50 to 250 nM |  |  | ≤ 50%
Cc1nc(-c2nnn(C)c2NC(=O)O[C@H](C)c2ccccc2Cl)ccc1NC(=O)[C@H]1CCCC[C@@H]1C(=O)O [Example 3, (1S,2S)-2-((6-(5-((((R)-1-(2-chlorophenyl)ethoxy)carbonyl)amino)-1-methyl-1H-1,2,3-triazol-4-yl)-2-methylpyridin-3-yl)carbamoyl)cyclohexane-1-carboxylic acid] | < 50 nM |  |  | ≤ 50%
C[C@@H](OC(=O)Nc1ccsc1-c1ccc(NC(=O)C2CCCCC2C(=O)O)cc1)c1ccccc1Cl (stereo partly drawn) [Example 6, Cis-2-((4-(3-((((R)-1-(2-chlorophenyl)ethoxy)carbonyl)amino)thiophen-2-yl)phenyl)carbamoyl)cyclohexane-1-carboxylic acid] | < 50 nM |  |  | 
Cc1nc(-c2onc(C)c2NC(=O)O[C@H](C)c2cccnc2)ccc1NC(=O)[C@H]1CCCC[C@@H]1C(=O)O [Example 15, (1S,2S)-2-((2-methyl-6-(3-methyl-4-((((R)-1-(pyridin-3-yl)ethoxy)carbonyl)amino)isoxazol-5-yl)pyridin-3-yl)carbamoyl)cyclohexane-1-carboxylic acid] | 50 to 250 nM |  |  | ≤ 50%
C[C@@H](OC(=O)Nc1ccsc1-c1ccc(NC(=O)[C@H]2CCCC[C@@H]2C(=O)O)cn1)c1ccccc1Cl [Example 21, (1S,2S)-2-((6-(3-((((R)-1-(2-chlorophenyl)ethoxy)carbonyl)amino)thiophen-2-yl)pyridin-3-yl)carbamoyl)cyclohexane-1-carboxylic acid] | 250 to 600 nM |  |  | 
C[C@@H](OC(=O)Nc1c(-c2ccc(NC(=O)[C@H]3CCCC[C@@H]3C(=O)O)cc2)nnn1C)c1ccccc1Cl [Example 23, (1S,2S)-2-((4-(5-((((R)-1-(2-chlorophenyl)ethoxy)carbonyl)amino)-1-methyl-1H-1,2,3-triazol-4-yl)phenyl)carbamoyl)cyclohexane-1-carboxylic acid] | < 50 nM |  |  | ≤ 50%
Cc1noc(-c2ccc(N(C)C(=O)[C@H]3CCCC[C@@H]3C(=O)O)cn2)c1NC(=O)O[C@H](C)c1cccnc1Cl [Example 30, (1S,2S)-2-((6-(4-((((R)-1-(2-chloropyridin-3-yl)ethoxy)carbonyl)amino)-3-methylisoxazol-5-yl)pyridin-3-yl)(methyl)carbamoyl)cyclohexane-1-carboxylic acid] | 250 to 600 nM |  |  | ≤ 50%
